Where no end group is shown, it is not given here.
Target: T1, 20S proteasomes purified from a B-LCL cell line (immunoproteasomes) (Homo sapiens, UniProt P28062+P28065+P40306)
T1 construct: 20S proteasomes were purified from a B-LCL cell line; endogenous in cells; purified after Groettrup et al. 1995
Experiment: In vitro proteasome mediated cleavage analysis
Type: biochemical
Design: key to Intact in fragment / Intact Fragment: intact epitope found in digestion fragments: (+), present; (-), not present; key to Processing C-term: generation by proteasome-mediated digestion of fragments containing the correct C-terminus: (++) fragments present for >5%; (+) present for <5%; (-) no fragments containing the C-term. were found
Settings: for Processing C-term: generation by proteasome-mediated digestion of fragments containing the correct C-terminus: 1 h digestion; for Intact Fragment: intact epitope found in digestion fragments: after 1 h digestion; for C-term. generation: generation of C-terminus of the epitope after 1 h digestion; for Intact in fragment: intact epitope found in digestion fragments after 1 h digestion
Experimental: 20S proteasomes were purified from a B-LCL cell line as described by Groettrup et al. (J. Biol. Chem. 270:23808-23815; 1995). This cell type is known to contain immunoproteasomes. High LMP2 and 7 content was confirmed by 2-D immuno-blotting. To assess kinetics, digestions were performed with different incubation periods. Peptides (27 mers, 20 μg) were incubated with 1 μg of purified proteasome at 37° C. for 1 h, 4 h and 24 h in 300 μl proteasome digestion buffer as described (Eggers, et al. 1995. J. Exp. Med. 182:1865). Trifluoroacetic acid was added to stop the digestion and samples were stored at −20° C. before mass spectrometric analysis.
Electrospray ionization mass spectrometry was performed on a hybrid quadrupole time-of-flight mass spectrometer, a Q-TOF (Micromass), equipped with an on-line nanoelectrospray interface with an approximate flow rate of 250 nL/min. Injections were done with a dedicated micro/nano HPLC autosampler, the FAMOS (LC Packings). Digestion solutions were diluted five times in water-methanol-acetic acid (95:5:1, v/v/v), and trapped on the precolumn (MCA-300-05-C8; LC Packings) in water-methanol-acetic acid (95:5:1, v/v/v). Washing of the precolumn was done for 3 min to remove the buffers present in the digests. Subsequently, the trapped analytes were eluted with a steep gradient going from 70% B to 90% B in 10 min, with a flow of 250 nl/min (A: water-methanol-acetic acid (95:5:1, v/v/v); B: water-methanol-acetic acid (10:90:1, v/v/v)). This low elution rate allows for a few additional MS/MS experiments if necessary during the same elution. Mass spectra were recorded from mass 50-2000 Da every second. The resolution allows direct determination of the monoisotopic mass, also from multiple charged ions. The peaks in the mass spectrum were searched in the digested precursor peptide using the Biolynx/proteins software (Micromass). The intensity of the peaks in the mass spectra was used to establish the relative amounts of peptides generated by proteasome digestion.

Processing C-term: generation by proteasome-mediated digestion of fragments containing the correct C-terminus	Intact Fragment: intact epitope found in digestion fragments	C-term. generation	Intact in fragment	Compound
-	-			CC[C@H](C)[C@H](NC(=O)[C@H](CC(C)C)NC(=O)[C@@H](N)Cc1ccc(O)cc1)C(=O)N[C@@H](CCC(=O)O)C(=O)N[C@@H](CCCCN)C(=O)N[C@H](C(=O)N[C@@H](CCCCN)C(=O)N[C@@H](CCCNC(=N)N)C(=O)N[C@@H](CCCCN)C(=O)O)C(C)C
-	-			CC(C)C[C@H](NC(=O)[C@H](Cc1c[nH]cn1)NC(=O)[C@H](CC(C)C)NC(=O)[C@@H](N)Cc1c[nH]cn1)C(=O)N[C@@H](CCC(=O)O)C(=O)N[C@H](C(=O)N[C@@H](Cc1ccccc1)C(=O)N[C@@H](CCCCN)C(=O)N[C@@H](C)C(=O)O)[C@@H](C)O
-	-			CSCC[C@H](NC(=O)[C@H](C)N)C(=O)N[C@H](C(=O)N[C@@H](CCC(N)=O)C(=O)N[C@@H](C)C(=O)N[C@@H](Cc1c[nH]c2ccccc12)C(=O)N1CCC[C@H]1C(=O)N[C@@H](Cc1ccccc1)C(=O)N[C@H](C(=O)N[C@@H](CS)C(=O)O)[C@@H](C)O)C(C)C
-	-			CC(C)C[C@H](NC(=O)[C@@H](NC(=O)[C@H](Cc1c[nH]cn1)NC(=O)[C@@H](NC(=O)[C@H](CC(C)C)NC(=O)[C@@H](N)CC(N)=O)[C@@H](C)O)C(C)C)C(=O)N[C@@H](Cc1ccc(O)cc1)C(=O)N1CCC[C@H]1C(=O)N[C@H](C(=O)O)C(C)C
++ ((++) fragments present for >5%)		++ (abundant (++) present for >5%)		CC(C)C[C@H](NC(=O)[C@H](CO)NC(=O)[C@H](CC(C)C)NC(=O)[C@H](Cc1ccccc1)NC(=O)[C@H](CCC(N)=O)NC(=O)[C@H](CO)NC(=O)[C@@H](NC(=O)[C@H](Cc1ccccc1)NC(=O)[C@@H](N)CCC(N)=O)[C@@H](C)O)C(=O)O
		+ (low abundant (+) present for <5%)	+	CC[C@H](C)[C@H](N)C(=O)N[C@H](C(=O)N[C@@H](CC(=O)O)C(=O)N[C@@H](CC(=O)O)C(=O)N[C@@H](CCC(N)=O)C(=O)N[C@@H](CC(C)C)C(=O)N[C@@H](CC(C)C)C(=O)N[C@@H](C)C(=O)N[C@@H](CC(C)C)C(=O)N[C@@H](CC(C)C)C(=O)O)[C@@H](C)O
-	-			CC[C@H](C)[C@H](NC(=O)[C@@H](N)CO)C(=O)N[C@@H](CO)C(=O)N[C@@H](C)C(=O)N[C@@H](CC(C)C)C(=O)N[C@@H](CCC(N)=O)C(=O)N[C@@H](CO)C(=O)N[C@@H](CC(C)C)C(=O)N[C@@H](CC(C)C)C(=O)O
-	-			GLSNITHVLY
-	-			CSCC[C@H](NC(=O)[C@@H](NC(=O)CNC(=O)[C@H](CO)NC(=O)[C@H](CC(C)C)NC(=O)[C@@H](N)CO)C(C)C)C(=O)N[C@@H](CC(C)C)C(=O)N[C@H](C(=O)N[C@@H](CC(=O)O)C(=O)N[C@H](C(=O)O)C(C)C)[C@@H](C)O
-	-			CC(C)C[C@H](NC(=O)[C@@H](NC(=O)[C@@H]1CCCN1C(=O)[C@H](CC(C)C)NC(=O)[C@H](CCCCN)NC(=O)[C@H](Cc1c[nH]c2ccccc12)NC(=O)[C@@H](NC(=O)[C@@H](N)CS)[C@@H](C)O)[C@@H](C)O)C(=O)N[C@@H](C)C(=O)N[C@@H](CCCCN)C(=O)O
-	-	++ (abundant (++) present for >5%)	+	CC[C@H](C)[C@H](NC(=O)[C@H](CO)NC(=O)[C@H](CC(N)=O)NC(=O)CNC(=O)[C@H](Cc1ccc(O)cc1)NC(=O)[C@H](Cc1ccccc1)NC(=O)[C@H](CO)NC(=O)[C@H](CC(C)C)NC(=O)[C@@H](N)[C@@H](C)O)C(=O)O
++ ((++) fragments present for >5%)	+	++ (abundant (++) present for >5%)	+	CC[C@H](C)[C@H](NC(=O)[C@H](C)NC(=O)[C@H](CC(C)C)NC(=O)[C@H](C)NC(=O)[C@H](CCC(=O)O)NC(=O)[C@H](CC(=O)O)NC(=O)[C@H](CCCCN)NC(=O)[C@H](CC(C)C)NC(=O)[C@H](CC(C)C)NC(=O)[C@@H](N)CO)C(=O)O
-	-			CC(C)C[C@H](NC(=O)[C@H](CCC(=O)O)NC(=O)[C@H](CC(=O)O)NC(=O)[C@H](CS)NC(=O)[C@H](C)NC(=O)CNC(=O)[C@H](CCC(=O)O)NC(=O)[C@H](CCCCN)NC(=O)[C@H](CC(C)C)NC(=O)[C@@H](N)Cc1ccccc1)C(=O)O
++ ((++) fragments present for >5%)	+	++ (abundant (++) present for >5%)	+	CC(C)C[C@H](NC(=O)[C@H](CCCNC(=N)N)NC(=O)[C@H](C)NC(=O)[C@H](Cc1c[nH]cn1)NC(=O)[C@H](CC(C)C)NC(=O)[C@H](Cc1ccc(O)cc1)NC(=O)[C@H](C)NC(=O)[C@H](CC(C)C)NC(=O)[C@@H](N)CCCNC(=N)N)C(=O)O
-	-			CC[C@H](C)[C@H](N)C(=O)N[C@@H](Cc1ccccc1)C(=O)N[C@@H](C)C(=O)N[C@@H](CCSC)C(=O)N1CCC[C@H]1C(=O)N[C@@H](CCSC)C(=O)N[C@@H](CCC(N)=O)C(=O)N[C@@H](CC(=O)O)C(=O)N[C@H](C(=O)O)[C@@H](C)CC
-	-			CC(C)C[C@H](NC(=O)[C@H](CCCNC(=N)N)NC(=O)[C@H](CC(C)C)NC(=O)[C@@H](NC(=O)[C@@H](N)CC(N)=O)C(C)C)C(=O)N[C@@H](CS)C(=O)N[C@@H](CS)C(=O)N[C@@H](CCCCN)C(=O)N[C@@H](CCCCN)C(=O)O
-	-			CSCC[C@H](N)C(=O)N[C@@H](CC(C)C)C(=O)N[C@H](C(=O)N[C@@H](CC(=O)O)C(=O)N[C@H](C(=O)N[C@@H](CO)C(=O)N1CCC[C@H]1C(=O)N[C@@H](CCC(=O)O)C(=O)N1CCC[C@H]1C(=O)N[C@@H](CC(C)C)C(=O)O)C(C)C)[C@@H](C)O
+ ((+) present for <5%)	+	+ (low abundant (+) present for <5%)	+	CC(C)C[C@H](NC(=O)[C@@H](NC(=O)[C@H](CCC(N)=O)NC(=O)[C@H](CO)NC(=O)[C@H](Cc1c[nH]cn1)NC(=O)[C@H](CCCNC(=N)N)NC(=O)CNC(=O)[C@H](CC(=O)O)NC(=O)[C@H](Cc1ccccc1)NC(=O)[C@H](C)N)[C@@H](C)O)C(=O)O
